From ChEMBL document CHEMBL2046341, “α-glucosidase inhibitors from Brickellia cavanillesii” (J Nat Prod, 2012)

Experiments:
[1] = Noncompetitive inhibition of Saccharomyces cerevisiae alpha-glucosidase using p-nitrophenyl-alpha-D-glucopyranoside as substrate by Lineweaver-Burk plot and Dixon plot analysis
[2] = Inhibition of Saccharomyces cerevisiae alpha-glucosidase using p-nitrophenyl-alpha-D-glucopyranoside as substrate preincubated for 5 mins prior to substrate addition measured after 35 mins by spectrophotocolorimetric assay
[3] = Competitive inhibition of Saccharomyces cerevisiae alpha-glucosidase using p-nitrophenyl-alpha-D-glucopyranoside as substrate by Lineweaver-Burk plot and Dixon plot analysis
[4] = Mixed type inhibition of Saccharomyces cerevisiae alpha-glucosidase using p-nitrophenyl-alpha-D-glucopyranoside as substrate by Lineweaver-Burk plot and Dixon plot analysis

Ki [1] | IC50 [2] | Ki [3] | SMILES | Ki [4]
130 µM | 420 µM |  | CC1(C)C=Cc2c(ccc(C(=O)CO)c2O)O1 | 
 | 340 µM | 260 µM | C[C@H]1O[C@H](O[C@H]2[C@H](O)[C@@H](O)[C@@H](O[C@H]3[C@H](O)[C@@H](O)C(O)O[C@@H]3CO)O[C@@H]2CO)[C@H](O)[C@@H](O)[C@@H]1N[C@H]1C=C(CO)[C@@H](O)[C@H](O)[C@H]1O (stereo partly drawn) [ACARBOSE] | 
 | 280 µM |  | C=C1C(=O)O[C@@H]2C[C@@H](C)/C=C\C(=O)[C@](C)(O)[C@H](OC(C)=O)[C@@H](OC(=O)/C(C)=C/C)[C@@H]12 [CALEIN C] | 410 µM

SMILES | Ki [1] | IC50 [2] | Ki [3] | Ki [4]
COc1cc(-c2oc3cc(O)cc(O)c3c(=O)c2O)ccc1O [ISORHAMNETIN] |  | 160 µM |  | 1910 µM
